Experimental data from US20060100179A1, “Compositions and methods for use in targeting vascular destruction” (priority 2002, published 2006).
pIC50: −log10 of the molar value. Read-outs that look alike come from different tables or passages of the source.

Columns and labels:
[1] = test system: HMVEC (human neonatal microvascular endothelial cells); assay: Cell survival by clonogenic assay (colony count or MTT) in HMVEC; conditions: for clonogenic toxicity to HMVEC after 1 hour exposure versus 6 hours: 1 and 6 hours exposure, washed, 3 more days, MTT assay (FIG. 5); for clonogenic cytotoxicity, HMVEC, limited exposure: exposure limited to 2 hours, clonogenic cytotoxicity estimated at 5 days (FIG. 2A)
Description: (§1) Cell culture. Four commercially available human cell lines were grown in the indicated media below in 5% CO2, 80% humidity and 37EC: • 1. HL60 human leukemic cells, a pro-apoptotic cell line—cultured in RPMI 1640 fortified with 10% fetal calf serum. • 2. K562 human leukemic cells, an apoptotic-resistant cell line—cultured in RPMI 1640 fortified with 10% fetal calf serum. • 3. Human neonatal microvascular endothelial cells (HMVEC)—cultured in medium 131+microvascular growth supplement (MVGS)+attachment factor (AF)=500 ml+25 ml (AF is added 2-3 ml/T-25 flask; all reagents supplied by Cascade Biologics, Inc., Portland, Oreg.). • 4. Human neonatal dermal fibroblasts (HDF)—cultured in medium 106+low serum growth supplement (LSGS)=500 ml+10 ml (Cascade Biologics, Inc.).
Cell survival by clonogenic assay. This assay is based on a description reported by Schweitzer et al. (Expt. Haematol. 21: 573-578, 1993) with slight modifications. […] After 5 days of incubation under the standard culture conditions stated above, colonies (>40 cells) were counted by an inverted light microscope or estimated by MTT assay. IC50 values were obtained from the fitted curves of percentage of the control versus the drug concentrations. […]
The combretastatins are a family of naturally occurring tubulin binding agents comprising an A-,B-,C- and D- series of structures (U.S. Pat. Nos. 4,940,726; 4,996,237; 5,409,953; and 5,569,786). […] The compounds were added to microcultures in DMSO (i.e <0.5%) and toxicity was evaluated by MTT assay after 5-7 days in culture. […]

[2] = test system: HDF (human neonatal dermal fibroblasts); assay: Cell survival by clonogenic assay (colony count or MTT) in HDF
Description: as §1
Cell survival by clonogenic assay. This assay is based on a description reported by Schweitzer et al. (Expt. Haematol. 21: 573-578, 1993) with slight modifications. […] After 5 days of incubation under the standard culture conditions stated above, colonies (>40 cells) were counted by an inverted light microscope or estimated by MTT assay. IC50 values were obtained from the fitted curves of percentage of the control versus the drug concentrations.
Experiment 1. HLGO, K562, HDF, and HMVEC cells were either cultured in 96-well plates at the indicated concentrations (FIGS. 2A and 2B) for 5 days in the presence of A4 prodrug, or after 2 hours exposure the drug-containing media was removed, fresh media added, and the cells cultured for an additional 5 days. Clonogenic growth was recorded after 5 days incubation for all treatments.
Experiment 2. HMVEC and HDF were cultured in 96-well microtiter plates initially containing 800 cells/well. The cells were cultured for 1 hour in the presence of the indicated concentrations of A4 prodrug ∀1 unit of alkaline phosphatase. The medium was removed, the cells washed, and fresh medium added, and the cells were incubated for an additional 5 days. Clonogenic growth was then established by the MTT assay.
The combretastatins are a family of naturally occurring tubulin binding agents comprising an A-,B-,C- and D- series of structures (U.S. Pat. Nos. 4,940,726; 4,996,237; 5,409,953; and 5,569,786). […] The compounds were added to microcultures in DMSO (i.e <0.5%) and toxicity was evaluated by MTT assay after 5-7 days in culture.
All of the compounds were evaluated for toxicity after a one-hour exposure in microculture and assayed for cytotoxicity by MTT assay after an additional 5 days' incubation in culture.

[3] = test system: HL60 human leukemic cells; assay: Cell survival by clonogenic assay in HL-60; assay type: cell-based
Description: (§2) Cell survival by clonogenic assay.

[4] = test system: ocular vessels; assay: Ocular neovascularization induced by lipid hydroperoxide (LHP) in rabbit eyes; assay type: in vivo; conditions: i.v. 40 mg/kg once a day for five days, eyes examined seven days later
Description: To simulate pathogenic ocular angiogenesis, ocular neovascularization was induced by administration of lipid hydroperoxide (LHP) by intra-corneal injection at a dosage of 30 μg to rabbit eyes. Seven to 14 days later, ocular vessels formed in the injected eyes due to LHP insult. The subjects were divided into two groups; those of one group were given combretastatin A4 disodium phosphate by intravenous administration at a dosage of 40 mg/kg once a day for five days, while a vehicle without combretastatin A4 disodium phosphate was administered to the other group by i.v. administration as a dosage of water for the same time period. The eyes of both groups were examined seven days later.

[5] = test system: K562 human leukemic cells; assay: Cell survival by clonogenic assay in K562; assay type: cell-based; conditions: 5 days exposure (FIG. 2B); read-out: IC50 clonogenic cytotoxicity, K562
Description: as §2

[6] = read-out: IC50 clonogenic toxicity values, HMVEC, compounds added in DMSO (<0.5%), MTT assay after 5-7 days in culture
[7] = read-out: IC50 values HMVEC, one-hour exposure, MTT assay after additional 5 days' incubation
[8] = read-out: IC50 clonogenic toxicity values, HDF, compounds added in DMSO (<0.5%), MTT assay after 5-7 days in culture
[9] = read-out: IC50 values HDF, one-hour exposure, MTT assay after additional 5 days' incubation
[10] = compounds added in DMSO (<0.5%), MTT assay after 5-7 days in culture, read-out: IC50 clonogenic toxicity values, HL-60

Row | Compound | pIC50 [1, 6] | pIC50 [1, 7] | pIC50 [2, 8] | pIC50 [2, 9] | pIC50 [3, 10] | further results
1 | COc1ccc(/C=C\c2cc(OC)c(OC)c(OC)c2)c(O)c1O [Combretastatin A1] | 6.30 | 4.82 to 5.00 | 7.70 | 6.00 to 6.30 | – | clonogenic toxicity to HMVEC after 1 hour exposure versus 6 hours [1]: did not induce maximum toxicity
2 | COc1ccc(/C=C\c2cc(OC)c3c(c2)OCO3)cc1O [Combretastatin A2, reference compound] | 7.40 to 7.52 | – | 7.46 to 7.60 | – | 7.82 | –
3 | COc1ccc(/C=C\c2cc(O)c(OC)c(OC)c2)cc1O [Combretastatin A3, reference compound] | < 7.92 | – | 8.00 to 8.10 | – | 8.30 | –
4 | COc1ccc(/C=C\c2cc(OC)c(OC)c(OC)c2)cc1OP(=O)([O-])[O-].[Na+].[Na+] [Combretastatin A4 Na2PO4, combretastatin A4 disodium phosphate] | – | 6.82 to 7.12 | – | < 6.30 | – | clonogenic cytotoxicity, HMVEC, limited exposure [1]: only HMVEC showed IC50 cytotoxicity; clonogenic cytotoxicity, HMVEC, limited exposure ([1]; listed as A4 prodrug): quite sensitive; pIC50 ([1]; read-out: IC50 clonogenic cytotoxicity, HMVEC, 5 days exposure (FIG. 2B)): 8.60 to 8.82; reduction of vessels [4]: ≥ 40%; pIC50 ([3]; 5 days exposure (FIG. 2B), read-out: IC50 clonogenic cytotoxicity, HL60): 8.60 to 8.82; pIC50 [5]: 8.60 to 8.82; cytotoxicity to HDF with added alkaline phosphatase, compared with HMVEC ([2]; 1 hour exposure, 1 unit alkaline phosphatase added (FIG. 3)): the same for HMVEC and HDF; cytotoxicity to HDF without added alkaline phosphatase ([2]; 1 hour exposure, no added alkaline phosphatase (FIG. 3)): lack of cytotoxicity; pIC50 ([2]; read-out: IC50 clonogenic cytotoxicity, HDF, 5 days exposure (FIG. 2B)): 8.60 to 8.82
5 | COc1ccc(/C=C\c2cc(OC)c(OC)c(OC)c2)cc1O [Combretastatin A4] | 8.70 to 9.00 | 6.82 to 7.12 | 8.70 to 9.00 | 7.30 | 8.70 to 9.00 | –
6 | COc1ccc(CCc2cc(OC)c(OC)c(OC)c2)c(O)c1O [Combretastatin B1, reference compound] | 6.52 to 6.70 | – | 6.52 to 6.70 | – | 6.30 | –
7 | COc1ccc(CCc2cc(O)c(OC)c(OC)c2)cc1O [Combretastatin B2, reference compound] | 6.00 to 6.10 | – | 5.96 | – | 6.90 | –
8 | O=C1N[C@H]2[C@H](O)[C@H](O)[C@@H](O)[C@H](O)[C@@H]2c2cc3c(c(O)c21)OCO3 [Pancratistatin] | – | – | – | – | – | pIC50 ([1]; Homo sapiens, HMVEC, read-out: IC50 values HMVEC): 4.60 to 4.70; pIC50 ([2]; Homo sapiens, Fibroblast, read-out: IC50 values HDF): 4.70
9 | CC(=O)O[C@H]1C(=O)[C@@]2(C)[C@H]([C@H](OC(=O)c3ccccc3)[C@]3(O)C[C@H](OC(=O)[C@H](O)[C@@H](NC(=O)c4ccccc4)c4ccccc4)C(C)=C1C3(C)C)[C@]1(OC(C)=O)CO[C@@H]1C[C@@H]2O [taxol, reference compound] | – | – | – | – | – | clonogenic toxicity to HMVEC after 1 hour exposure versus 6 hours [1]: did not induce maximum toxicity
10 | CC(=O)O[C@@]12CO[C@@H]1C[C@H](O)[C@@]1(C)C(=O)[C@H](O)C3=C(C)[C@@H](OC(=O)[C@H](O)[C@@H](NC(=O)OC(C)(C)C)c4ccccc4)C[C@@](O)([C@@H](OC(=O)c4ccccc4)[C@H]21)C3(C)C [taxotere, reference compound] | – | – | – | – | – | clonogenic toxicity to HMVEC after 1 hour exposure versus 6 hours [1]: did not induce maximum toxicity
11 | Amino Combretastatin A4 Phosphoroamidate | – | 5.00 to 5.10 | – | 4.70 to 4.82 | – | –
12 | Combretastatin A1 Na2PO4 | – | 4.82 to 5.00 | – | 5.00 to 5.30 | – | –
13 | Combretastatin A1 Nicotinamide PO4 | – | 4.82 to 5.00 | – | < 5.00 | – | –
14 | Combretastatin A1 Piperazine PO4 | – | 4.82 to 5.00 | – | 5.70 to 6.00 | – | –
15 | Pancratistatin Na2PO4 | – | 4.60 to 4.70 | – | 4.10 to 4.22 | – | –
